Laboratory results as given in ChEMBL document CHEMBL2331290, “4-Hydroxypyridazin-3(2H)-one derivatives as novel D-amino acid oxidase inhibitors” (J Med Chem, 2013).

Legend:
[1] = Effective permeability of the compound at pH 6.5 after 2 hrs by PAMPA; assay type: ADME; conditions: read-out: Peff
D-amino-acid oxidase [2] = molecular target: T1, D-amino-acid oxidase (Homo sapiens, UniProt P14920)
Description: Inhibition of DAAO (unknown origin) by cell based assay

D-amino-acid oxidase [3] = molecular target: T1, D-amino-acid oxidase; assay: Inhibition of human recombinant DAAO after 30 mins by plate reader analysis
HEK293 = assay: Cytotoxicity against HEK293 cells overexpressing human full length DAAO by Alamar Blue assay; assay type: cell-based
D-amino-acid oxidase [4] = molecular target: D-amino-acid oxidase (Rattus norvegicus, UniProt O35078)
D-amino-acid oxidase (Rattus norvegicus, UniProt O35078), sequence (O35078 whole entry): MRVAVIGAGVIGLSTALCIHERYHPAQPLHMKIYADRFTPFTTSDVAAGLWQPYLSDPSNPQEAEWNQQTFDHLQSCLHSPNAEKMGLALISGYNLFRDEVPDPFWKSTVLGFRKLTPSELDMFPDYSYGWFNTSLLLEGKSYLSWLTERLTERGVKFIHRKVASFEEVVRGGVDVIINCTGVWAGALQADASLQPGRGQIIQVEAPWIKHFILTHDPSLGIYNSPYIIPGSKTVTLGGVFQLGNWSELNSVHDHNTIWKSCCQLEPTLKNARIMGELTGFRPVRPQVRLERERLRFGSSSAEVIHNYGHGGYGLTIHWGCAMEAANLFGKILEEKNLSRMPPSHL
Description: Inhibition of rat full length DAAO overexpressed in HEK293 cells after 30 mins by plate reader analysis

D-amino-acid oxidase [5] = molecular target: D-amino-acid oxidase (Mus musculus, UniProt P18894)
D-amino-acid oxidase (Mus musculus, UniProt P18894), sequence (P18894 whole entry): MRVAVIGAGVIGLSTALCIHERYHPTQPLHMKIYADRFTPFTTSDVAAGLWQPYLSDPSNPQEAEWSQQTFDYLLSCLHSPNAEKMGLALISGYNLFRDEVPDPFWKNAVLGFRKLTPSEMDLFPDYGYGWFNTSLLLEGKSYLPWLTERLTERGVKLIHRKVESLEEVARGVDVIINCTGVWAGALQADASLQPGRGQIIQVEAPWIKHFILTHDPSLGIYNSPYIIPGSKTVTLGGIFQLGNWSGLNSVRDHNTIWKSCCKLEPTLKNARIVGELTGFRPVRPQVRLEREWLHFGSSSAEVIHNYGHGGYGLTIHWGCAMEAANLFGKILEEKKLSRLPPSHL
Description: Inhibition of mouse full length DAAO overexpressed in HEK293 cells after 30 mins by plate reader analysis

D-amino-acid oxidase [6] = molecular target: T1, D-amino-acid oxidase; remark: listed apart in the source
Description: Inhibition of human full length DAAO overexpressed in HEK293 cells after 30 mins by plate reader analysis

[7] = Plasma concentration in ddY mouse at 30 mg/kg, po after 30 mins by LC-MS/MS analysis; assay type: ADME, organism-based; parameters: dose 30 mg/kg, route oral
[8] = Drug uptake in ddY mouse brain at 30 mg/kg, po after 30 mins by LC-MS/MS analysis; assay type: ADME, organism-based; parameters: dose 30 mg/kg, route oral; conditions: read-out: Drug uptake

T1 sequence (P14920 whole entry): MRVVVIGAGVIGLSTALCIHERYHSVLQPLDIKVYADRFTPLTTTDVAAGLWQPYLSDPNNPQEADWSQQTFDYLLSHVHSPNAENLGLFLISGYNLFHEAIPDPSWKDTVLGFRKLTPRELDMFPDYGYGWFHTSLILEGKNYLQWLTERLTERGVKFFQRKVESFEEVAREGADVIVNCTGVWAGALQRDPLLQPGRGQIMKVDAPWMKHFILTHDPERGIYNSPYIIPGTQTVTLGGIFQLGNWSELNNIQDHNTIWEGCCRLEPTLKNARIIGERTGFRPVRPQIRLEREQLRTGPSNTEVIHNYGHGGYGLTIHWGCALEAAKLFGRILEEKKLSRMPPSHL

Structure (SMILES)	IC50 (D-amino-acid oxidase [4]) [nM]	IC50 (D-amino-acid oxidase [5]) [nM]	further results
O=c1[nH]c2ccccc2cc1O	–	–	Papp at 2 h [1]: 18.2 ×10⁻⁶ cm/s
O=c1[nH]cc(Cl)cc1O	–	–	Papp at 2 h [1]: 6.4 ×10⁻⁶ cm/s; IC50 (D-amino-acid oxidase [2]): 930 nM; IC50 (D-amino-acid oxidase [3]): 47 nM
Cc1c[nH]c(=O)c(O)c1	–	–	Activity (HEK293): Toxic; IC50 (D-amino-acid oxidase [3]): 140 nM
O=c1[nH]cc(CCc2ccccc2)cc1O	–	–	Papp at 2 h [1]: > 30 ×10⁻⁶ cm/s; Activity (HEK293): Toxic
O=c1[nH]nc(CCc2ccccc2)cc1O	4.6	3.3	–
CC(c1ccccc1)c1cc(O)c(=O)[nH]n1 (stereo not drawn)	3.1	2.8	–
O=c1[nH]nc(CCCc2ccccc2)cc1O	1220	426	–
O=c1[nH]nc(CCC2CCCCC2)cc1O	8.2	3.2	–
O=c1[nH]nc(CCc2ccc(Cl)cc2)cc1O	2.4	1.9	–
O=c1[nH]nc(/C=C/c2ccc(Cl)cc2)cc1O	470	240	IC50 (D-amino-acid oxidase [6]): 570 nM; IC50 (D-amino-acid oxidase [3]): 120 nM
O=c1[nH]nc(C2CCCCC2)cc1O	> 1000	> 1000	IC50 (D-amino-acid oxidase [6]): > 1000 nM; IC50 (D-amino-acid oxidase [3]): 300 nM
CC(C)(C)CCc1cc(O)c(=O)[nH]n1	> 1000	> 1000	IC50 (D-amino-acid oxidase [6]): > 1000 nM; IC50 (D-amino-acid oxidase [3]): 670 nM
O=c1cc(COc2ccccc2)[nH]nc1O	6.5	4.6	–
O=c1[nH]nc(CCc2ccccc2F)cc1O	4.9	3.6	–
O=c1[nH]nc(CCc2ccccc2C(F)(F)F)cc1O	41	7.1	–
O=c1[nH]nc(CCc2cccc(F)c2)cc1O	2.6	1.9	–
COc1cccc(CCc2cc(O)c(=O)[nH]n2)c1	5.6	4.4	–
O=c1[nH]nc(CCc2ccc(F)cc2)cc1O	2.2	2.5	–
COc1ccc(CCc2cc(O)c(=O)[nH]n2)cc1	3.8	3.6	–
O=c1[nH]nc(CCc2cc(F)cc(F)c2)cc1O	16	4.4	concentration at 0.5 h [7]: 6540 ng/mL; concentration at 0.5 h [8]: 460 ng/mL
O=c1[nH]nc(CCc2cc(C(F)(F)F)cc(C(F)(F)F)c2)cc1O	1900	490	–
COc1cc(CCc2cc(O)c(=O)[nH]n2)cc(OC)c1	19	12	–
Oc1cccnc1O	–	–	IC50 (D-amino-acid oxidase [3]): 1150 nM
O=C(O)c1cc2sccc2[nH]1	–	–	Papp at 2 h [1]: 0.8 ×10⁻⁶ cm/s; IC50 (D-amino-acid oxidase [2]): 147 nM; IC50 (D-amino-acid oxidase [3]): 1.4 nM
O=c1[nH]nc(CCc2ccc(C(F)(F)F)cc2)cc1O [LUVADAXISTAT]	5	5.9	–
